Drawing on patent US10005774B2, “Syk inhibitors” (Gilead Sciences, Inc., priority 2013, dated 2018), this text covers IC50 for 32 molecules.

The structures appear in SMILES notation. pIC50: −log10 of the molar value.

In one assay the target is Syk (Homo sapiens, UniProt P43405). Description: High Throughput Syk Biochemical Assay (KinEASE TR-FRET). The settings on record: TABLE D, 20 μM ATP, 1 μM biotinylated peptide, 0.015 nM Syk, 30 min at room temperature, read-out: IC50. Summed up: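 Two-step endpoint TR-FRET (KinEASE) measured Syk phosphorylation of an XL665-labelled peptide, detected with europium anti-phosphotyrosine antibody. Compounds were serially diluted in DMSO.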
For the molecule `COc1ccc(-c2cc3ncn(CF)c3c(O[C@H](C)[C@H]3CNC(=O)C3)n2)cc1OC` [(R)-4-((R)-1-(6-(3,4-dimethoxyphenyl)-3-(fluoromethyl)-3H-imidazo[4,5-c]pyridin-4-yloxy)ethyl)pyrrolidin-2-one], the pIC50 is 8.60.
In the case of `COc1cc(-c2cc3ncn(C)c3c(O[C@H](C)[C@H]3CNC(=O)C3)n2)cc(OC)c1OC` [(R)-4-((R)-1-(3-methyl-6-(3,4,5-trimethoxyphenyl)-3H-imidazo[4,5-c]pyridin-4-yloxy)ethyl)pyrrolidin-2-one], the pIC50 is 8.28.
For `C[C@@H](Oc1nc(-c2ccc(N3CCN(C4COC4)CC3)cc2)cc2ncn(C)c12)[C@H]1CNC(=O)C1` [(R)-4-((R)-1-(3-methyl-6-(4-(4-(oxetan-3-yl)piperazin-1-yl)phenyl)-3H-imidazo[4,5-c]pyridin-4-yloxy)ethyl)pyrrolidin-2-one], the pIC50 is 8.09.
For the molecule `C[C@@H](Oc1cc(-c2cnn(C3CCOCC3)c2)cc2ncsc12)[C@H]1CNC(=O)C1` (stereo in doubt) [(R)-4-((R)-1-((5-(1-(tetrahydro-2H-pyran-4-yl)-1H-pyrazol-4-yl)benzo[d]thiazol-7-yl)oxy)ethyl)pyrrolidin-2-one], the pIC50 was 9.16.
In the case of `C=CC[C@@H](Oc1nc(-c2cnn(C(C)(C)C)c2)cc2ncn(C)c12)[C@H]1CNC(=O)C1`, the pIC50 is 7.72.
The same measure, in the same setting: with `C[C@@H](Oc1nc(-c2cnn(CC(F)(F)F)c2)cc2ncn(C)c12)[C@H]1CNC(=O)C1` [(R)-4-((R)-1-(3-methyl-6-(1-(2,2,2-trifluoroethyl)-1H-pyrazol-4-yl)-3H-imidazo[4,5-c]pyridin-4-yloxy)ethyl)pyrrolidin-2-one] the figure was 7.68; with `COc1ccc(-c2cc3ncn(C(F)F)c3c(O[C@H](C)[C@H]3CNC(=O)C3)n2)cc1OC` [(R)-4-((R)-1-(3-(difluoromethyl)-6-(3,4-dimethoxyphenyl)-3H-imidazo[4,5-c]pyridin-4-yloxy)ethyl)pyrrolidin-2-one], 8.96.
Take `CC(C)n1cc(-c2cc3ncn(C)c3c(O[C@H](C)[C@H]3CNC(=O)C3)n2)cn1` [(R)-4-((R)-1-(6-(1-isopropyl-1H-pyrazol-4-yl)-3-methyl-3H-imidazo[4,5-c]pyridin-4-yloxy)ethyl)pyrrolidin-2-one]: the pIC50 was 8.06.
In the case of `COc1ccc(-c2cc3nc(C)n(C(F)F)c3c(O[C@H](C)[C@H]3CNC(=O)C3)n2)cc1OC` [(R)-4-((R)-1-(3-(difluoromethyl)-6-(3,4-dimethoxyphenyl)-2-methyl-3H-imidazo[4,5-c]pyridin-4-yloxy)ethyl)pyrrolidin-2-one], the pIC50 is 7.29.
As to `CC[C@@H](Oc1nc(-c2cnn(C(C)(C)C)c2)cc2ncn(C)c12)[C@H]1CNC(=O)C1` [(R)-4-((R)-1-(6-(1-tert-butyl-1H-pyrazol-4-yl)-3-methyl-3H-imidazo[4,5-c]pyridin-4-yloxy)propyl)pyrrolidin-2-one], the pIC50 was 7.62.
On the same count and under the same terms, the result for `C[C@@H](Oc1nc(-c2cnn(C)c2)cc2ncn(C)c12)[C@H]1CNC(=O)C1` [(R)-4-((R)-1-(3-methyl-6-(1-methyl-1H-pyrazol-4-yl)-3H-imidazo[4,5-c]pyridin-4-yloxy)ethyl)pyrrolidin-2-one] reads 7.61.
Still for that read-out and setting: with `C[C@@H](Oc1nc(-c2ccc3c(c2)NCCO3)cc2ncn(C)c12)[C@H]1CNC(=O)C1` [(R)-4-((R)-1-(6-(3,4-dihydro-2H-benzo[b][1,4]oxazin-6-yl)-3-methyl-3H-imidazo[4,5-c]pyridin-4-yloxy)ethyl)pyrrolidin-2-one] the figure was 8.39; with `Cc1nc2cc(-c3cc4ncn(C)c4c(O[C@H](C)[C@H]4CNC(=O)C4)n3)ccc2s1` [(R)-4-((R)-1-((3-methyl-6-(2-methylbenzo[d]thiazol-5-yl)-3H-imidazo[4,5-c]pyridin-4-yl)oxy)ethyl)pyrrolidin-2-one], 7.91.
In the case of `C[C@@H](Oc1cc(-c2ccc(N3CCN(C4COC4)CC3)cc2)cc2ncsc12)[C@H]1CNC(=O)C1` (stereo in doubt) [(R)-4-((R)-1-((5-(4-(4-(oxetan-3-yl)piperazin-1-yl)phenyl)benzo[d]thiazol-7-yl)oxy)ethyl)pyrrolidin-2-one], the pIC50 is 9.17.
Regarding `C[C@@H](Oc1cc(-c2cccc3scnc23)cc2ncsc12)[C@H]1CNC(=O)C1` [(R)-4-((R)-1-([4,5′-bibenzo[d]thiazol]-7′-yloxy)ethyl)pyrrolidin-2-one], the pIC50 was 6.98.
As to `C[C@@H](Oc1cc(-c2cnn(CC(F)F)c2)cn2nccc12)[C@H]1CNC(=O)C1` [(R)-4-((R)-1-((6-(1-(2,2-difluoroethyl)-1H-pyrazol-4-yl)pyrazolo[1,5-a]pyridin-4-yl)oxy)ethyl)pyrrolidin-2-one], the pIC50 was 7.99.
For `COc1ccc(-c2cn3nc(C)cc3c(O[C@H](C)[C@H]3CNC(=O)C3)n2)cc1OC` [(R)-4-((R)-1-((6-(3,4-dimethoxyphenyl)-2-methylpyrazolo[1,5-a]pyrazin-4-yl)oxy)ethyl)pyrrolidin-2-one], the pIC50 is 7.50.

The assay is the same for the next values; noted with them: table 'ALL NEW COMPOUNDS IN 2014', 20 μM ATP, 1 μM biotinylated peptide, 0.015 nM Syk, 30 min at room temperature, read-out: Syk IC50.
Consider `C[C@@H](Oc1nc(-c2ccc(N3CCN(C4COC4)CC3)c(C#N)c2)cc2ncn(C3CC3)c12)[C@H]1CNC(=O)C1` [5-(3-cyclopropyl-4-((R)-1-((R)-5-oxopyrrolidin-3-yl)ethoxy)-3H-imidazo[4,5-c]pyridin-6-yl)-2-(4-(oxetan-3-yl)piperazin-1-yl)benzonitrile], for which the pIC50 was 8.28.
Still for that read-out and setting: with `Cc1cnc(-c2cc(O[C@H](C)[C@H]3CNC(=O)C3)c3c(c2)ncn3C2CC2)s1` [(R)-4-((R)-1-((1-cyclopropyl-5-(5-methylthiazol-2-yl)-1H-benzo[d]imidazol-7-yl)oxy)ethyl)pyrrolidin-2-one] the figure was 8.76; with `CCOc1cc(-c2cc3ncn(C4CC4)c3c(O[C@H](C)[C@H]3CNC(=O)C3)n2)ccc1OC` [(R)-4-((R)-1-((3-cyclopropyl-6-(3-ethoxy-4-methoxyphenyl)-3H-imidazo[4,5-c]pyridin-4-yl)oxy)ethyl)pyrrolidin-2-one], 8.53; with `C[C@@H](Oc1cc(-c2cnn(C)c2)cc2ncn(C3CC3)c12)[C@H]1CNC(=O)C1` [(R)-4-((R)-1-((1-cyclopropyl-5-(1-methyl-1H-pyrazol-4-yl)-1H-benzo[d]imidazol-7-yl)oxy)ethyl)pyrrolidin-2-one], 8.35.
Still for that read-out and setting: with `C[C@@H](Oc1nc(-c2ccc(C3CCN(C4COC4)CC3)cc2)cc2ncn(C3CC3)c12)[C@H]1CNC(=O)C1` [(R)-4-((R)-1-((3-cyclopropyl-6-(4-(1-(oxetan-3-yl)piperidin-4-yl)phenyl)-3H-imidazo[4,5-c]pyridin-4-yl)oxy)ethyl)pyrrolidin-2-one] the figure was 8.64; with `C[C@@H](Oc1nc(-c2cnc(C3CCOCC3)s2)cc2ncn(C3CC3)c12)[C@H]1CNC(=O)C1` [(R)-4-((R)-1-((3-cyclopropyl-6-(2-(tetrahydro-2H-pyran-4-yl)thiazol-5-yl)-3H-imidazo[4,5-c]pyridin-4-yl)oxy)ethyl)pyrrolidin-2-one], 8.45; with `C[C@@H](Oc1nc(-c2ccc3c(C4CC4)n[nH]c3c2)cc2ncn(C3CC3)c12)[C@H]1CNC(=O)C1`, 8.21.
Consider `Cc1cc(-c2cc3ncn(C4CC4)c3c(O[C@H](C)[C@H]3CNC(=O)C3)n2)sn1` [(R)-4-((R)-1-((3-cyclopropyl-6-(3-methylisothiazol-5-yl)-3H-imidazo[4,5-c]pyridin-4-yl)oxy)ethyl)pyrrolidin-2-one], for which the pIC50 was 8.64.
On the same count and under the same terms, the result for `C[C@@H](Oc1cc(-c2ccc(N3CCN(C4COC4)CC3)nn2)cc2ncn(C3CC3)c12)[C@H]1CNC(=O)C1` [(R)-4-((R)-1-((1-cyclopropyl-5-(6-(4-(oxetan-3-yl)piperazin-1-yl)pyridazin-3-yl)-1H-benzo[d]imidazol-7-yl)oxy)ethyl)pyrrolidin-2-one] reads 7.93.
Regarding `C[C@@H](Oc1nc(-c2ccc3c(c2)N(C)C(=O)C32CN(C)C2)cc2ncn(C3CC3)c12)[C@H]1CNC(=O)C1` [6′-(3-cyclopropyl-4-((R)-1-((R)-5-oxopyrrolidin-3-yl)ethoxy)-3H-imidazo[4,5-c]pyridin-6-yl)-1,1′-dimethylspiro[azetidine-3,3′-indolin]-2′-one], the pIC50 was 8.12.
With `C[C@@H](Oc1cc(-c2ccc(N3CCN(C4COC4)CC3)cc2F)cc2ncn(C3CC3)c12)[C@H]1CNC(=O)C1` [(R)-4-((R)-1-((1-cyclopropyl-5-(2-fluoro-4-(4-(oxetan-3-yl)piperazin-1-yl)phenyl)-1H-benzo[d]imidazol-7-yl)oxy)ethyl)pyrrolidin-2-one], the pIC50 was 8.56.
Take `C[C@@H](Oc1cc(-c2cnc(C3CCOCC3)s2)cc2ncn(C3CC3)c12)[C@H]1CNC(=O)C1` [(R)-4-((R)-1-((1-cyclopropyl-5-(2-(tetrahydro-2H-pyran-4-yl)thiazol-5-yl)-1H-benzo[d]imidazol-7-yl)oxy)ethyl)pyrrolidin-2-one]: the pIC50 is 9.27.
In the case of `C[C@@H](Oc1nc(-c2ccc3c(cnn3CC(F)F)c2)cc2ncn(C3CC3)c12)[C@H]1CNC(=O)C1` [(R)-4-((R)-1-((3-cyclopropyl-6-(1-(2,2-difluoroethyl)-1H-indazol-5-yl)-3H-imidazo[4,5-c]pyridin-4-yl)oxy)ethyl)pyrrolidin-2-one], the pIC50 is 8.74.
With `Cc1cc(-c2cc(O[C@H](C)[C@H]3CNC(=O)C3)c3c(c2)ncn3C2CC2)ccc1N1CCN(C2COC2)CC1` [(R)-4-((R)-1-((1-cyclopropyl-5-(3-methyl-4-(4-(oxetan-3-yl)piperazin-1-yl)phenyl)-1H-benzo[d]imidazol-7-yl)oxy)ethyl)pyrrolidin-2-one], the pIC50 is 8.67.
The same measure, in the same setting: the result for `C[C@@H](Oc1cc(-c2ccc(N3CC4CC(C3)O4)cn2)cc2ncn(C3CC3)c12)[C@H]1CNC(=O)C1` [(4R)-4-((1R)-1-((5-(5-(6-oxa-3-azabicyclo[3.1.1]heptan-3-yl)pyridin-2-yl)-1-cyclopropyl-1H-benzo[d]imidazol-7-yl)oxy)ethyl)pyrrolidin-2-one] reads 8.25.
